Source: the supplement of paper PMC10307832

Experiments:
Test in all cases: relative viability (nuclei count vs DMSO), 5 days (fraction); higher = more cells survive
CAP-232 + Bortezomib = compound: C[C@H]([C@@H](C(=O)N)NC(=O)[C@@H]1CSSC[C@@H](C(=O)N[C@H](C(=O)N[C@@H](C(=O)N[C@H](C(=O)N1)CCCCN)CC2=CNC3=CC=CC=C32)CC4=CC=C(C=C4)O)NC(=O)[C@@H](CC5=CC=CC=C5)N)O [CAP-232] + CC(C)C[C@H](NC(=O)[C@H](Cc1ccccc1)NC(=O)c1cnccn1)B(O)O [Bortezomib] (partner 0.002 µM)
In short: (§1)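 Lung cancer cell lines, seeded in 1536-well plates, were treated the following day by pin tool with a single drug or with five library-drug doses (not always all listed) in √10 steps on top of a fixed anchor-drug dose. Cells were fixed and nuclei stained in one step after 5 days, and nuclei were counted. Relative viability is the nuclei count for treated wells divided by that for vehicle wells, reported as medians of duplicate plates.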

CAP-232 + Tozasertib = compound: C[C@H]([C@@H](C(=O)N)NC(=O)[C@@H]1CSSC[C@@H](C(=O)N[C@H](C(=O)N[C@@H](C(=O)N[C@H](C(=O)N1)CCCCN)CC2=CNC3=CC=CC=C32)CC4=CC=C(C=C4)O)NC(=O)[C@@H](CC5=CC=CC=C5)N)O [CAP-232] + Cc1cc(Nc2cc(N3CCN(C)CC3)nc(Sc3ccc(NC(=O)C4CC4)cc3)n2)n[nH]1 [Tozasertib] (partner 0.1 µM)
In short: as §1

CAP-232 + OSI-027 = compound: C[C@H]([C@@H](C(=O)N)NC(=O)[C@@H]1CSSC[C@@H](C(=O)N[C@H](C(=O)N[C@@H](C(=O)N[C@H](C(=O)N1)CCCCN)CC2=CNC3=CC=CC=C32)CC4=CC=C(C=C4)O)NC(=O)[C@@H](CC5=CC=CC=C5)N)O [CAP-232] + COc1cccc2cc(-c3nc([C@H]4CC[C@H](C(=O)O)CC4)n4ncnc(N)c34)[nH]c12 [OSI-027] (partner 0.5 µM)
In short: as §1

CAP-232 + Palbociclib = compound: C[C@H]([C@@H](C(=O)N)NC(=O)[C@@H]1CSSC[C@@H](C(=O)N[C@H](C(=O)N[C@@H](C(=O)N[C@H](C(=O)N1)CCCCN)CC2=CNC3=CC=CC=C32)CC4=CC=C(C=C4)O)NC(=O)[C@@H](CC5=CC=CC=C5)N)O [CAP-232] + CC(=O)c1c(C)c2cnc(Nc3ccc(N4CCNCC4)cn3)nc2n(C2CCCC2)c1=O [Palbociclib] (partner 0.5 µM)
In short: as §1

CAP-232 + Pemetrexed = compound: C[C@H]([C@@H](C(=O)N)NC(=O)[C@@H]1CSSC[C@@H](C(=O)N[C@H](C(=O)N[C@@H](C(=O)N[C@H](C(=O)N1)CCCCN)CC2=CNC3=CC=CC=C32)CC4=CC=C(C=C4)O)NC(=O)[C@@H](CC5=CC=CC=C5)N)O [CAP-232] + Nc1nc2[nH]cc(CCc3ccc(C(=O)N[C@@H](CCC(=O)O)C(=O)O)cc3)c2c(=O)[nH]1 [Pemetrexed] (partner 0.2 µM)
In short: as §1

| Cell Line | relative viability (CAP-232 + Bortezomib; first compound 0.4 µM) | relative viability (CAP-232 + Bortezomib; first compound 1.265 µM) | relative viability (CAP-232 + Bortezomib; first compound 4 µM) | relative viability (CAP-232 + Bortezomib; first compound 12.65 µM) | relative viability (CAP-232 + Tozasertib; first compound 0.4 µM) | relative viability (CAP-232 + Tozasertib; first compound 1.265 µM) | relative viability (CAP-232 + Tozasertib; first compound 4 µM) | relative viability (CAP-232 + Tozasertib; first compound 12.65 µM) | relative viability (CAP-232 + OSI-027; first compound 0.4 µM) | relative viability (CAP-232 + OSI-027; first compound 1.265 µM) | relative viability (CAP-232 + OSI-027; first compound 4 µM) | relative viability (CAP-232 + OSI-027; first compound 12.65 µM) | relative viability (CAP-232 + Palbociclib; first compound 0.4 µM) | relative viability (CAP-232 + Palbociclib; first compound 1.265 µM) | relative viability (CAP-232 + Palbociclib; first compound 4 µM) | relative viability (CAP-232 + Palbociclib; first compound 12.65 µM) | relative viability (CAP-232 + Pemetrexed; first compound 0.4 µM) | relative viability (CAP-232 + Pemetrexed; first compound 1.265 µM) | relative viability (CAP-232 + Pemetrexed; first compound 4 µM) | relative viability (CAP-232 + Pemetrexed; first compound 12.65 µM) |
| --- | --- | --- | --- | --- | --- | --- | --- | --- | --- | --- | --- | --- | --- | --- | --- | --- | --- | --- | --- | --- |
| PC-14 | 0.931 | 0.817 | 1.07 | 0.821 | 0.644 | 0.575 | 0.542 | 0.565 | 0.8 | 0.848 | 1.08 | 0.397 | 0.675 | 0.507 | 0.538 | 0.412 | 0.121 | 0.123 | 0.137 | 0.127 |
| NCI-H3122 | 1.01 | 1.05 | 0.896 | 1 | 0.344 | 0.36 | 0.292 | 0.252 | 0.629 | 1.01 | 1.07 | 0.474 | 0.178 | 0.181 | 0.187 | 0.214 | 0.2 | 0.226 | 0.201 | 0.194 |
| SK-MES-1 | – | – | – | – | 0.903 | 0.893 | 0.905 | 0.774 | 0.696 | 0.557 | 0.583 | 0.264 | 0.324 | 0.292 | 0.278 | 0.258 | 1.04 | 0.95 | 0.961 | 0.608 |
| NCI-H1944 | – | – | – | – | 0.245 | 0.253 | 0.27 | 0.263 | 0.379 | 0.388 | 0.403 | 0.392 | 0.393 | 0.31 | 0.326 | 0.325 | 0.569 | 0.517 | 0.601 | 0.573 |
| LK-2 | – | – | – | – | 0.147 | 0.199 | 0.163 | 0.147 | 0.197 | 0.18 | 0.231 | 0.175 | 0.595 | 0.802 | 0.576 | 0.783 | 0.325 | 0.284 | 0.326 | 0.294 |
| RERF-LC-KJ | 1.16 | 1.15 | 1.44 | 0.987 | 0.562 | 0.444 | 0.433 | 0.351 | 0.588 | 0.533 | 0.486 | 0.231 | 1.43 | 1.12 | 0.908 | 0.747 | 0.499 | 0.534 | 0.441 | 0.407 |
| COR-L23 | 0.959 | 1.04 | 1.15 | 0.732 | 0.176 | 0.194 | 0.187 | 0.193 | 1.15 | 0.759 | 0.85 | 0.495 | 0.338 | 0.29 | 0.304 | 0.255 | 0.203 | 0.199 | 0.196 | 0.163 |
| NCI-H1355 | 1.27 | 1.22 | 1.39 | 1.24 | 0.638 | 0.586 | 0.557 | 0.655 | 0.41 | 0.449 | 0.331 | 0.403 | 0.42 | 0.413 | 0.432 | 0.343 | 1.03 | 0.946 | 1.19 | 1 |
| NCI-H460 | 1.49 | 1.17 | 1.22 | 0.812 | 0.487 | 0.463 | 0.634 | 0.396 | 0.767 | 0.739 | 0.825 | 0.275 | 0.246 | 0.148 | 0.155 | 0.0823 | 0.0632 | 0.0566 | 0.0556 | 0.0558 |
| NCI-H1993 | 1.26 | 1.07 | 0.966 | 0.896 | 0.621 | 0.569 | 0.664 | 0.582 | 0.604 | 0.539 | 0.544 | 0.492 | 0.701 | 0.586 | 0.62 | 0.602 | 0.602 | 0.533 | 0.553 | 0.586 |
| ChaGo-K-1 | 1.45 | 0.768 | 1.06 | 0.784 | 0.218 | 0.237 | 0.245 | 0.213 | 0.65 | 0.504 | 0.678 | 0.6 | 0.964 | 0.932 | 1.01 | 0.932 | 0.284 | 0.259 | 0.259 | 0.248 |
| HCC-15 | 1.16 | 1 | 1.27 | 0.77 | 0.378 | 0.329 | 0.382 | 0.435 | 0.714 | 0.662 | 0.69 | 0.521 | 0.754 | 0.763 | 0.567 | 0.567 | 0.19 | 0.218 | 0.223 | 0.0856 |
| NCI-H23 | 1.15 | 1.03 | 1.06 | 0.953 | 0.416 | 0.386 | 0.384 | 0.309 | 0.64 | 0.529 | 0.687 | 0.487 | 0.437 | 0.478 | 0.523 | 0.567 | 0.686 | 0.492 | 0.746 | 0.623 |
| NCI-H1395 | – | – | – | – | 0.677 | 0.793 | 0.765 | 0.79 | 0.647 | 0.532 | 0.67 | 0.707 | 0.679 | – | 0.665 | 0.578 | 0.971 | – | 0.917 | 0.503 |
| NCI-H1666 | 0.759 | – | 0.952 | 0.393 | 0.631 | 0.574 | 0.673 | 0.345 | 0.973 | 0.809 | 0.907 | 0.769 | 0.715 | 0.636 | 0.655 | 0.67 | 0.911 | 0.887 | 0.984 | 0.874 |
